{"source": "patent US20250051333A1", "about": "“POLYMORPH OF KRAS INHIBITOR, PREPARATION METHOD THEREFOR, AND USE THEREOF” (GENFLEET THERAPEUTICS (SHANGHAI) INC., priority 2021, published 2025)", "format_in_all_cases": "physicochemical", "key": {"[1]": {"assay": "Hygroscopicity by DVS testing", "conditions": "for Desorption curve (cycle 1, desorption): DVS 25° C., from 30% RH to 95% RH", "experimental": "The dynamic vapor sorption (DVS) analysis may be conducted on the DVS Intrinsic system from Surface Measurement Systems (SMS). Temperature: 25° C.: sample amount: 20-40 mg; protective gas and flow rate: N2, 200 mL/min; dm/dt: 0.002%/min; minimum dm/dt equilibration time: 10 min, maximum equilibration time. 180 min; RH range: room humidity to 95% RH to 0% RH to 95% RH: 0% RH to 95% RH to 0% RH; RH gradient: 10% RH (0% RH to 90% RH & 90% RH to 0% RH): 5% RH (90% RH to 95% RH & 95% RH to 90% RH)."}, "[2]": {"assay": "Solid stability, 60° C./75% RH open, physical stability by XRPD", "conditions": "for Crystalline form: XRPD; for Polymorphic transition: 60° C./75% RH open, up to 1 month", "experimental": "Appropriate amounts of samples were weighed and let stand at 60° C./75% RH open to the atmosphere for 7 days, 14 days, and 1 month. Samples of different standing times were evaluated for the physical stability of the crystalline forms by XRPD."}, "[3]": {"assay": "Variable-temperature XRPD / heating test of crystalline forms", "experimental": "The X-ray powder diffraction (XRPD) analysis may be conducted on the X'Pert3 X-ray powder diffraction analyzer with the following parameters: Cu, kα; Kα1 (Å): 1.540598: Kα2 (Å): 1.544426; Kα2/Kα1 intensity ratio: 0.50; voltage: 45 kV; current: 40 mA; divergent slit: ⅛°; scan mode: continuous: scanning range: 3° to 40°: scanning step: 0.0263°; time of step: 46.665 s: scanning time: 5 min 03 s. Alternatively, the analysis may be conducted on the PANalytical Empyrean X-ray powder diffraction analyzer with the following parameters: Cu, kα; Kα1 (Å): 1.540598: Kα2 (Å); 1.544426: Kα2/Kα1 intensity ratio: 0.50: voltage: 45 kV; current; 40 mA: divergent slit: automatic; scan mode: continuous; scanning range: 3° to 40°; scanning step: 0.0167°; time of step: 17.780 s/33.020 s; scanning time: 5 min 32 s/10 min 13 s."}, "[4]": {"assay": "Humidity induction test: standing at various humidities at room temperature", "conditions": "for Polymorphic transition or not: room temperature, open", "from_the_text": "Some of the crystalline forms prepared in the above examples were investigated in a humidity induction test at room temperature."}, "[5]": {"assay": "Solid stability, 60° C. sealed 24 hours and 40° C./75% RH open one week (XRPD, HPLC, KF)", "conditions": "for Purity (%): HPLC; for Water content (%): KF test; for Polymorphic transition or not: XRPD; for Relative to the initial (%): purity", "from_the_text": "Proton nuclear magnetic resonance may be conducted on the Bruker 400M nuclear magnetic resonance spectrometer, with deuterated chloroform, deuterated methanol, or dimethyl sulfoxide-d6 as the solvent. Water titration (KF test) may be conducted on the Metrohm 870 KF Titrinoplus from Sigma-Aldrich, with ultrapure water for calibration and Hydranal® R-Composite 5 as the titration reagent. HPLC-grade methanol was used to dissolve the solid sample.\nHigh-performance liquid chromatography (HPLC) may be conducted on the Agilent 1260 high-performance liquid chromatograph system (Waters Xbridge C18, 150×4.6 mm, 5 μm column).\nIn order to further evaluate the solid stability of the crystalline forms of the present invention, appropriate amounts of samples were for at 60° C. in a sealed condition for 24 hours and at 40° C./75% RH open to the atmosphere for a week."}, "[6]": {"conditions": "43.2% RH (saturated potassium carbonate), 10 days"}, "[7]": {"conditions": "43.2% RH (saturated potassium carbonate), 23 days"}, "[8]": {"conditions": "60% RH (stability chamber), 10 days"}, "[9]": {"conditions": "60% RH (stability chamber), 23 days"}, "[10]": {"conditions": "84.2% RH (saturated potassium chloride), 10 days"}, "[11]": {"conditions": "84.2% RH (saturated potassium chloride), 23 days"}, "[12]": {"conditions": "60° C. sealed 24 hours and 40° C./75% RH open one week"}, "[13]": {"conditions": "23 days open to the atmosphere at room temperature at 43.2% RH to 84.2% RH"}}, "data": [{"compound": "C=CC(=O)N1CCN2c3c(c(=O)n(-c4c(C)ccnc4C(C)C)c4nc(-c5c(O)cccc5F)c(Cl)cc34)N(C)C(=O)[C@H]2C1", "note": "(single isomer, unassigned) [Amorphous form sample]", "values": [{"measurement": "Desorption curve (cycle 1, desorption)", "setting": "[1]", "value": "a plateau was observed"}, {"measurement": "Crystalline form", "setting": "[2]; 60° C./75% RH (open), 1 month", "value": "Polymorphic transition"}, {"measurement": "Crystalline form", "setting": "[2]; 60° C./75% RH (open), 7 days", "value": "Amorphous form"}, {"measurement": "Polymorphic transition", "setting": "[2]", "value": "occurrence of polymorphic transition"}, {"measurement": "Crystalline form", "setting": "[2]; Initial, 0 days", "value": "Amorphous form"}]}, {"compound": "C=CC(=O)N1CCN2c3c(c(=O)n(-c4c(C)ccnc4C(C)C)c4nc(-c5c(O)cccc5F)c(Cl)cc34)N(C)C(=O)[C@H]2C1", "note": "[Crystalline form 4, (4aR,8R)-3-acryloyl-11-chloro-10-(2-fluoro-6-hydroxyphenyl)-8-(2-isopropyl-4-methylpyridin-3-yl)-6-methyl-2,3,4,4a,6,8-hexahydro-1H-pyrazino[1′,2′:4,5]pyrazino[2,3-c][1,8]naphthyridine-5,7-dione]", "values": [{"measurement": "Crystalline form change on heating (variable-temperature XRPD)", "setting": "[3]; heating to 80° C. or 130° C. in a N2 atmosphere", "value": "no significant crystalline form changes were observed"}]}, {"compound": "C=CC(=O)N1CCN2c3c(c(=O)n(-c4c(C)ccnc4C(C)C)c4nc(-c5c(O)cccc5F)c(Cl)cc34)N(C)C(=O)[C@H]2C1", "note": "[Crystalline form 6, (4aR,8R)-3-acryloyl-11-chloro-10-(2-fluoro-6-hydroxyphenyl)-8-(2-isopropyl-4-methylpyridin-3-yl)-6-methyl-2,3,4,4a,6,8-hexahydro-1H-pyrazino[1′,2′:4,5]pyrazino[2,3-c][1,8]naphthyridine-5,7-dione]", "values": [{"measurement": "Polymorphic transition or not", "setting": "[4]; 22.5% RH (saturated potassium acetate), 10 days", "value": "No"}, {"measurement": "Polymorphic transition or not", "setting": "[4]; 22.5% RH (saturated potassium acetate), 23 days", "value": "No"}, {"measurement": "Polymorphic transition or not", "setting": "[4]; 22.5% RH (saturated potassium acetate), 30 days", "value": "No"}, {"measurement": "Polymorphic transition or not", "setting": "[4]; [6]", "value": "No"}, {"measurement": "Polymorphic transition or not", "setting": "[4]; [7]", "value": "No"}, {"measurement": "Polymorphic transition or not", "setting": "[4]; 43.2% RH (saturated potassium carbonate), 30 days", "value": "No"}, {"measurement": "Polymorphic transition or not", "setting": "[4]; [8]", "value": "No"}, {"measurement": "Polymorphic transition or not", "setting": "[4]; [9]", "value": "No"}, {"measurement": "Polymorphic transition or not", "setting": "[4]; 60% RH (stability chamber), 30 days", "value": "No"}, {"measurement": "Polymorphic transition or not", "setting": "[4]; [10]", "value": "No"}, {"measurement": "Polymorphic transition or not", "setting": "[4]; [11]", "value": "No"}, {"measurement": "Polymorphic transition or not", "setting": "[4]; 84.2% RH (saturated potassium chloride), 30 days", "value": "No"}, {"measurement": "Polymorphic transition", "setting": "[4]; 30 days open to the atmosphere at room temperature at 22.5% RH to 84.2% RH", "value": "neither crystalline form 6 (Example 12) nor crystalline form 3 (Example 3) exhibited polymorphic transition"}, {"measurement": "Desorption curve (cycle 1, desorption)", "setting": "[1]", "value": "a plateau can be observed"}, {"measurement": "Crystallinity after DVS testing", "setting": "[1]; after DVS testing", "value": "only slightly reduced"}, {"measurement": "Purity (%)", "setting": "[5]; 40° C./75% RH/open, 1 week", "value": 99.56, "unit": "%"}, {"measurement": "Water content (%)", "setting": "[5]; 40° C./75% RH/open, 1 week", "value": 8.7, "unit": "%"}, {"measurement": "Polymorphic transition or not", "setting": "[5]; 40° C./75% RH/open, 1 week", "value": "No"}, {"measurement": "HPLC purity change", "setting": "[5]; [12]", "value": "no significant decrease in HPLC purity"}, {"measurement": "Polymorphic transition", "setting": "[5]; [12]", "value": "no polymorphic transition"}, {"measurement": "Purity (%)", "setting": "[5]; 60° C./sealed, 1 day", "value": 99.62, "unit": "%"}, {"measurement": "Water content (%)", "setting": "[5]; 60° C./sealed, 1 day", "value": 6.2, "unit": "%"}, {"measurement": "Polymorphic transition or not", "setting": "[5]; 60° C./sealed, 1 day", "value": "No"}, {"measurement": "Purity (%)", "setting": "[5]; Initial", "value": 99.61, "unit": "%"}, {"measurement": "Water content (%)", "setting": "[5]; Initial", "value": 9.0, "unit": "%"}, {"measurement": "Relative to the initial (%)", "setting": "[5]; 40° C./75% RH/open, 1 week", "value": 99.95, "unit": "%"}, {"measurement": "Relative to the initial (%)", "setting": "[5]; 60° C./sealed, 1 day", "value": 100.01, "unit": "%"}, {"measurement": "Polymorphic transition", "setting": "[2]", "value": "mild transition"}, {"measurement": "Crystalline form", "setting": "[2]; Initial, 0 days", "value": "Crystalline form 6"}]}, {"compound": "C=CC(=O)N1CCN2c3c(c(=O)n(-c4c(C)ccnc4C(C)C)c4nc(-c5c(O)cccc5F)c(Cl)cc34)N(C)C(=O)[C@H]2C1", "note": "[Crystalline form 8, (4aR,8R)-3-acryloyl-11-chloro-10-(2-fluoro-6-hydroxyphenyl)-8-(2-isopropyl-4-methylpyridin-3-yl)-6-methyl-2,3,4,4a,6,8-hexahydro-1H-pyrazino[1′,2′:4,5]pyrazino[2,3-c][1,8]naphthyridine-5,7-dione]", "values": [{"measurement": "Polymorphic transition or not", "setting": "[4]; [6]", "value": "No"}, {"measurement": "Polymorphic transition or not", "setting": "[4]; [7]", "value": "No"}, {"measurement": "Polymorphic transition or not", "setting": "[4]; [8]", "value": "No"}, {"measurement": "Polymorphic transition or not", "setting": "[4]; [9]", "value": "No"}, {"measurement": "Polymorphic transition or not", "setting": "[4]; [10]", "value": "No"}, {"measurement": "Polymorphic transition or not", "setting": "[4]; [11]", "value": "No"}, {"measurement": "Polymorphic transition", "setting": "[4]; [13]", "value": "neither crystalline form 8 (Example 40) nor crystalline form 9 (Example 42) exhibited polymorphic transition"}]}, {"compound": "C=CC(=O)N1CCN2c3c(c(=O)n(-c4c(C)ccnc4C(C)C)c4nc(-c5c(O)cccc5F)c(Cl)cc34)N(C)C(=O)[C@H]2C1", "note": "[Crystalline form 9, (4aR,8R)-3-acryloyl-11-chloro-10-(2-fluoro-6-hydroxyphenyl)-8-(2-isopropyl-4-methylpyridin-3-yl)-6-methyl-2,3,4,4a,6,8-hexahydro-1H-pyrazino[1′,2′:4,5]pyrazino[2,3-c][1,8]naphthyridine-5,7-dione]", "values": [{"measurement": "Polymorphic transition or not", "setting": "[4]; [6]", "value": "No"}, {"measurement": "Polymorphic transition", "setting": "[4]; [13]", "value": "neither crystalline form 8 (Example 40) nor crystalline form 9 (Example 42) exhibited polymorphic transition"}, {"measurement": "XRPD pattern after heating test", "setting": "[3]; heated to 100° C. and exposed to air", "value": "identical to that before heating"}]}, {"compound": "C=CC(=O)N1CCN2c3c(c(=O)n(-c4c(C)ccnc4C(C)C)c4nc(-c5c(O)cccc5F)c(Cl)cc34)N(C)C(=O)[C@H]2C1", "note": "[Crystalline form 11, (4aR,8R)-3-acryloyl-11-chloro-10-(2-fluoro-6-hydroxyphenyl)-8-(2-isopropyl-4-methylpyridin-3-yl)-6-methyl-2,3,4,4a,6,8-hexahydro-1H-pyrazino[1′,2′:4,5]pyrazino[2,3-c][1,8]naphthyridine-5,7-dione]", "values": [{"measurement": "Crystalline form change on heating (variable-temperature XRPD)", "setting": "[3]; holding at 30° C. for 20 minutes and heating to 100 C in a N2 atmosphere", "value": "no significant crystalline form changes were observed"}]}]}
